According to ChEMBL document CHEMBL1212938, “Inhibition of mycobacterial replication by pyrimidines possessing various C-5 functionalities and related 2'-deoxynucleoside analogues using in vitro and in vivo models” (J Med Chem, 2010):
Active and inactive are the calls of the source.

How the values were obtained:
Type in all cases: functional, organism-based
Salmonella typhimurium = assay: Antibacterial activity against Salmonella Typhimurium at 100 ug/ml after 16 to 20 hrs by broth microdilution method; conditions: Salmonella enterica subsp. enterica serovar Typhimurium
Pseudomonas aeruginosa = assay: Antibacterial activity against Pseudomonas aeruginosa at 100 ug/ml after 16 to 20 hrs by broth microdilution method
Proteus vulgaris = assay: Antibacterial activity against Proteus vulgaris at 100 ug/ml after 16 to 20 hrs by broth microdilution method
Escherichia coli = assay: Antibacterial activity against Escherichia coli at 100 ug/ml after 16 to 20 hrs by broth microdilution method
[1] = system: Staphylococcus epidermidis; assay: Antibacterial activity against Staphylococcus epidermidis at 100 ug/ml after 16 to 20 hrs by broth microdilution method
Streptococcus pyogenes = assay: Antibacterial activity against Streptococcus pyogenes at 100 ug/ml after 16 to 20 hrs by broth microdilution method
Streptococcus pneumoniae = assay: Antibacterial activity against Streptococcus pneumoniae at 100 ug/ml after 16 to 20 hrs by broth microdilution method
Enterococcus faecalis = assay: Antibacterial activity against Enterococcus faecalis at 100 ug/ml after 16 to 20 hrs by broth microdilution method
Staphylococcus aureus = assay: Antibacterial activity against Staphylococcus aureus at 100 ug/ml after 16 to 20 hrs by broth microdilution method
Bacillus subtilis = assay: Antibacterial activity against Bacillus subtilis at 100 ug/ml after 16 to 20 hrs by broth microdilution method
Listeria monocytogenes = assay: Antibacterial activity against Listeria monocytogenes at 100 ug/ml after 16 to 20 hrs by broth microdilution method

Measured: Activity

O=c1[nH]cc(C(CI)OCCBr)c(=O)[nH]1 (stereo not drawn)
not listed: Bacillus subtilis | Listeria monocytogenes
inactive: all other assays above

CCCCCCCCC#Cc1c[nH]c(=O)[nH]c1=O
inactive: all assays above

O=c1[nH]cc(C(CI)OCC(F)(F)F)c(=O)[nH]1 (stereo not drawn)
not listed: Bacillus subtilis | Listeria monocytogenes
inactive: all other assays above

CCCCCCCCc1cc2c[nH]c(=O)nc2o1
inactive: all assays above

COC(CBr)c1c[nH]c(=O)[nH]c1=O (stereo not drawn)
not listed: Bacillus subtilis | Listeria monocytogenes
inactive: all other assays above

COC(CI)c1c[nH]c(=O)[nH]c1=O (stereo not drawn)
not listed: Bacillus subtilis | Listeria monocytogenes
inactive: all other assays above

O=c1[nH]cc(C(CI)OCCF)c(=O)[nH]1 (stereo not drawn)
not listed: Bacillus subtilis | Listeria monocytogenes
inactive: all other assays above

COC(CCl)c1c[nH]c(=O)[nH]c1=O (stereo not drawn)
not listed: Bacillus subtilis | Listeria monocytogenes
inactive: all other assays above

CCCCCCCCCCc1cc2c[nH]c(=O)nc2o1
inactive: all assays above

CCOC(CI)c1c[nH]c(=O)[nH]c1=O (stereo not drawn)
not listed: Bacillus subtilis | Listeria monocytogenes
inactive: all other assays above

CCCCCCCCCCC#Cc1c[nH]c(=O)[nH]c1=O
inactive: all assays above

O=C(O)/C=C/c1c[nH]c(=O)[nH]c1=O
not listed: Bacillus subtilis | Listeria monocytogenes
inactive: all other assays above

CCCC#Cc1c[nH]c(=O)[nH]c1=O
inactive: all assays above

O=C(O)C(I)C(O)c1c[nH]c(=O)[nH]c1=O (stereo not drawn)
not listed: Bacillus subtilis | Listeria monocytogenes
inactive: all other assays above

O=c1[nH]cc(C(O)CI)c(=O)[nH]1 (stereo not drawn)
not listed: Bacillus subtilis | Listeria monocytogenes
inactive: all other assays above

CCCCCCCCCCCC#Cc1c[nH]c(=O)[nH]c1=O
inactive: all assays above

CCCCCCCCCCCCC#Cc1c[nH]c(=O)[nH]c1=O
inactive: all assays above

CCCCCc1cc2c[nH]c(=O)nc2o1
inactive: all assays above
